In one series the target is T1, human NUDT5 (Homo sapiens, UniProt Q9UKK9).
T1 construct: His-tag (N); made in house; host or cells: E. coli BL21 (DE3) R3 pRARE2
The experiment in a line: enzyme-coupled malachite green assay (MG assay), ADPR hydrolysis. The settings on record: NUDT5, ADPR substrate; read-out: MG assay IC50 (Biochemical IC50). The series is classed as biochemical. The text has this:
We next sought to develop small molecule NUDT5 inhibitors to further probe the role of NUDT5 in ADPR metabolism. A high-throughput, screening-compatible NUDT5 inhibition assay was established using slight modifications to the aforementioned MG procedure (Fig. 2a)[15],[27]. Briefly, ADPR, NUDT5 and calf intestinal alkaline phosphatase (CIP) were combined in a coupled enzymatic assay, as described in the online methods. In turn, ADPR was hydrolyzed to AMP and R5P by NUDT5, and the released R5P was further degraded to ribose and inorganic phosphate (Pi) by CIP. Free Pi was subsequently detected using the malachite green reagent. The screen was conducted using a combination of the Chemical Biology Consortium of Sweden (CBCS) primary screening set and several commercial libraries from Enamine, TimTec, Maybridge and ChemDiv. In total, ~72 000 distinct chemical entities were screened for their potential inhibition of NUDT5 at a concentration of 10 µM (Supplementary Table 1, Supplementary Fig. 2a, b). Execution of this screening campaign was split between two different occasions. The screening performance in the two screening campaigns was excellent (average z´ factors of 0.87 and 0.85, Supplementary Fig. 2c), resulting in a hit limit as defined by the average and three standard deviations of the library compound responses of 10.1 and 18.4% inhibition, respectively (Supplementary Table 1, Supplementary Fig. 2a, b). This translated to 53 and 475 hits (0.3 and 0.8% hit rate, respectively), yielding 528 total hits from the 2 separate screening occasions.
Activity of NUDT5 and MTH1 with a panel of potential substrates [2-OH-ATP, 2-OH-dATP, 8-oxo-dGDP, GDP and 8-oxo-GTP (Jena Biosciences), 8-oxo-dGTP (TriLink Biotechnologies), dATP (ThermoFisher Scientific), dGTP, GTP and ADPR (Sigma-Aldrich)] was assessed in reaction buffer (100 mM Tris Acetate pH 7.5, 40 mM NaCl, 10 mM Mg Acetate) at 22 °C. For ADPR, alkaline phosphatase from bovine intestinal mucosa (10 U/ml; Sigma-Aldrich) was added as coupled enzyme, while other substrates were coupled to E. coli pyrophosphatase (0.2 U/mL, Sigma-Aldrich). After 30 min incubation with shaking, formed inorganic phosphate was detected by addition of malachite green reagent. Absorbance at 630 nm was read after 15 min incubation with shaking using a Hidex Sense plate reader. The potency of NUDT5 inhibitors was assessed similarly as above (and in the screening campaign) by monitoring ADPR hydrolysis; details are in the Supplementary Information.
Small molecule library composition
The screen for NUDT5 inhibitors was conducted at Chemical Biology Consortium Sweden (www.cbcs.se). Two screening campaigns completed in August 2012 and in March 2013 respectively comprised a combination of in-house and commercially available libraries, amounting to a total of 75679 compounds. The commercial compounds originate from Enamine, TimTec, MayBridge and ChemDiv. The in-house libraries were donated by Biovitrum AB, Sweden (the origin and composition is described previously)2. For long-term storage, the compounds are kept frozen at - 20°C as 10 mM solutions in dimethyl sulfoxide (DMSO) under low humidity conditions in REMP 96 Storage Tube Racks in a REMP Small-Size Store™. To facilitate screening an aliquot of the stock solutions have been transferred to Labcyte 384 LDV plates (LP-0200) to enable dispensing using an Echo 550™ acoustic liquid handler (LabCyte). For both screening campaigns 40 nl of the compound solutions were dispensed directly into columns 1-22 of the 384-well assay plates (Nunc 242757), while columns 23 and 24 were reserved for controls as outlined below. The plates were sealed with a Peelable Aluminium seal (Agilent 24210-001) using a PlateLoc thermal microplate sealer (Agilent) and kept at room temperature until used. The final compound concentration in the screen was 10 µM with a final DMSO concentration of […]
Enzymatic assay applied for screening and hit confirmation […]

Another series deals with T2, NUDT5 in HL-60 cells (Homo sapiens, UniProt Q9UKK9).
T2 construct: endogenous in cells; host or cells: HL-60
The experiment in a line: isothermal dose-response fingerprint CETSA (ITDRFCETSA). The settings on record: 20 to 0.06 µM. The class given is cell-based. The procedure: Treatments, heating and lysis procedures for ITDRFCETSA were performed identically to those for CETSA experiments, except NUDT5 inhibitors were added to cells at serial dilutions from 20 to 0.06 µM. Curves were fit by sigmoidal dose-response (variable slope) to derive EC50 values in GraphPad Prism 7.

Another series relates to T47D cells. Description: cell viability by resazurin. The class given is cell-based. The settings on record: 72 h. The procedure: Cell viability was assessed by resazurin[9]. 5000 HL-60 cells (or 1000 U-2 OS/2000 T47D cells) were seeded per well on a 96-well plate. The following morning, compounds (or the equivalent amount of DMSO) were added to obtain the final concentrations indicated and the cells were incubated at 37 °C for 72 h with resazurin added at 0.02 mg/mL for the last 2–6 h. Resorufin fluorescence was detected at […] with a Hidex Sense fluorescent plate reader. Viability curves were fit using the sigmoidal dose-response (variable slope) function in GraphPad Prism 7.

The test system of series [1] is nuclear ATP production in T47D^WT cells. Description: nuclear ATP visualization by bioluminescence (Nuc-luc reporter) after R5020. The class given is cell-based. Conditions: 10 nM R5020. The procedure: (§1) For hormone and inhibitor treatments, normal T47D^WT cells or cells containing a single copy of luciferase under the control of the mouse mammary tumor virus (MMTV) promoter (T47D^M) were used[23]. Prior to hormone induction, cells were grown in phenol red-free RPMI medium supplemented with 10% dextran-coated charcoal-treated FBS (DCC/FBS). After 16 h in serum-free conditions, cells were pre-incubated with DMSO (vehicle) or NUDT5 inhibitor for 2 h at the indicated dose before addition of R5020 (10 nM) or vehicle (ethanol, EtOH) for the allotted time.
T47D^WT cells were seeded in RPMI in black-walled 96-well plates and transfected using Lipofectamine 2000® (Invitrogen, manufacturer’s instructions) with the nuclear-targeted luciferase constructs (Nuc-luc FRTTO[53]) at a final concentration of 50 ng DNA/well for 48 h. 16 h prior to hormone (R5020, 10 nM) exposure, cells were synchronized by serum starvation. Bioluminescence was activated by addition of 100 µl D-luciferin (1 mg/mL water, Sigma) and ATP was quantified using an IVIS system (Xenogen Corp).

Another series has as its system T47D^M cells. Description: progesterone-dependent gene expression by RT-qPCR. The series is classed as cell-based. The settings on record: 1.5 µM, 6 h R5020. The procedure: as §1
Total RNA and cDNA were prepared using an RNeasy Plus kit (Qiagen) and Superscript II kit (Invitrogen), respectively, according to the manufacturers’ instructions. Quantification of mRNA abundance of specific gene products was performed by RT-qPCR (LightCycler FastStart DNA Master SYBR Green I), normalized to GAPDH and expressed as relative RNA abundance over time zero (no R5020 treatment). Primer sequences are available upon request.
Background: In qPCR the cycle at which signal appears reflects the starting amount.

In general, IC50 refers to the concentration that inhibits the measured activity by half. The term EC50 denotes the concentration giving half of the maximal effect.

Where “and” joins values, the source holds several entries; their conditions need not be identical. Equal values may be shown once.

Turning to `CCN1CCN(c2nc3c(c(=O)n(C)c(=O)n3C)n2Cc2nnc(-c3ccc(Cl)c(Cl)c3)o2)CC1` [TH5424], at human NUDT5, the IC50 stood at 39 nM. Moreover, the “ITDRFCETSA dose-dependent stabilization” value on NUDT5 in HL-60 cells is listed as “could also dose-dependently stabilize NUDT5, however much higher concentrations were required”. In addition, the “toxicity in T47D cells” value in the series with T47D cells is “generally non-toxic when used below 20 µM”. For the same molecule, the “nuclear luminescence (nuclear ATP) after R5020” value in series [1] (15 µM) is “strong luminescence was observed”.
Consider `Cn1c(=O)c2c(nc(N3CCNCC3)n2Cc2nnc(-c3ccc(Cl)c(Cl)c3)o2)n(C)c1=O` [TH5427], for which the 50% inhibitory concentration (IC50) at human NUDT5 is 29.1 nM and 29 nM. The EC50 at NUDT5 in HL-60 cells (read-out: ITDRFCETSA apparent EC50) worked out at 2100 nM. Moreover, the “toxicity in T47D cells” value with T47D cells is on record as “generally non-toxic when used below 20 µM”. Moreover, the “nuclear luminescence (nuclear ATP) after R5020” value in series [1] (1.5 µM) is on record as “marked reduction in nuclear luminescence”. In the series with T47D^M cells, the “progestin-dependent gene expression, EGFR and MMTV-luc” value is “significantly disrupted EGFR and MMTV-luc expression”; the “progestin-independent gene expression, CCNB1 and RBM24” value was “did not affect the expression of CCNB1 or RBM24”.

The record behind these values is PMC5772648, “Targeted NUDT5 inhibitors block hormone signaling in breast cancer cells” (Nature Communications, 2018).
